Measured values reported in the NIST ThermoML archive (doi:10.1021/je600567z).
± gives the expanded uncertainty stated by the source.

Test: activity coefficient (dimensionless); of the first substance listed, at infinite dilution; xn = mol fraction of the nth substance listed
Conditions: Liquid, x1 = 0
[1] = 273.35 K, Relative Headspace Analysis
[2] = 283.15 K, Relative Headspace Analysis
[3] = 363.15 K, circulation equilibrium still
[4] = 371.15 K, circulation equilibrium still
[5] = 333.15 K, Rayleigh distallation
[6] = 343.15 K, Rayleigh distallation
[7] = 353.15 K, circulation equilibrium still
[8] = 293.15 K, Relative Headspace Analysis

Compound	activity coefficient [1]	activity coefficient [2]	activity coefficient (293.15 K, headspace analysis)	activity coefficient (303.15 K, headspace analysis)	activity coefficient (313.15 K, headspace analysis)	activity coefficient (323.15 K, headspace analysis)	activity coefficient (333.15 K, headspace analysis)	activity coefficient [3]	activity coefficient [4]	activity coefficient [5]	activity coefficient [6]	activity coefficient [7]	activity coefficient [8]	other results
CC(C)CO [2-methyl-1-propanol] + O	31.6 ± 1.9	36.8 ± 2.2	44.3 ± 2.7	50.3 ± 3	54.1 ± 3.2	57.6 ± 3.5	58.3 ± 3.5	54.3 ± 3.3	52.2 ± 3.1					activity coefficient (298.15 K, Relative Headspace Analysis): 47.4 ± 2.8
CC(C)(C)O [2-methylpropan-2-ol] + O				14.4 ± 0.9	16.9 ± 1			26.3 ± 1.6	27.4 ± 1.6	21.8 ± 1.3	23.5 ± 1.4	25.4 ± 1.5		activity coefficient (299.15 K, headspace analysis): 13.1 ± 0.8; activity coefficient (323.15 K, Rayleigh distallation): 19.9 ± 1.2
CCC(C)O (configuration not stated) [butan-2-ol] + O	13.7 ± 0.8	17.9 ± 1.1	22.5 ± 1.4	26.8 ± 1.6	31.3 ± 1.9	33.8 ± 2	36.9 ± 2.2	40.4 ± 2.4	37.8 ± 2.3		38 ± 2.3		22.6 ± 1.4	activity coefficient (303.15 K, inert gas stripping): 26.8 ± 1.6; activity coefficient (313.15 K, inert gas stripping): 30.8 ± 1.8; activity coefficient (323.15 K, inert gas stripping): 34.4 ± 2.1; activity coefficient (333.15 K, inert gas stripping): 35.7 ± 2.1; activity coefficient (353.15 K, Rayleigh distallation): 38.4 ± 2.3
CC(C)O [propan-2-ol] + O		5.37 ± 0.32						12.9 ± 0.8	13.1 ± 0.8	11.8 ± 0.7		12.5 ± 0.8	6.89 ± 0.41	activity coefficient (308.15 K, Relative Headspace Analysis): 8.84 ± 0.53
